Source: patent US6436416B1, “Cosmetic skin conditioning compositions containing high performing retinyl esters” (Unilever Home & Personal Care USA, division of Conopco, Inc., priority 2000, dated 2002)

Columns and labels:
Procollagen I = Procollagen I assay; assay type: cell-based, human; settings: fibroblasts, control at 100%
Excerpt: Collagen is a predominant skin protein. Its synthesis decreases with aging or photodamage. The degradation or destruction of collagen […] the tensile strength of the skin causing wrinkles and laxity. Many studies involving human subjects have shown that collagen type I is decreased with increasing severity of photodamage (See Kligman, A., JAMA, (1969), 210, pp. 2377-2380; Lavker, R., J. Inv Derm., (1979), 73, 79-66; Smith J. et al., J. lnv. Derm., (1962), 39, pp. 347-350; and Shuster, S. et al., Br. J. Dermatol., (1975), 93, pp. 639-643); and some correlation in the histology of wrinkles and reduction in collagen levels in the sun-exposed skin has been reported. See Chen, S.; Kiss, I., J. Inv. Derm., (1992), 98. pp. 248-254. Voorhees and colleagues have supported these findings by showing the restoration of collagen type I in photo-damaged human skin by a topical treatment with tretinoin. See Christopher, E., et al., The New Eng. Jou. of Medicine (1993), 329, pp. 530-535. Procollagen I is a precursor of collagen. Increased production of procollagen I in response to a test compound application is a marker of an increased collagen level.
Seed passage 3 (P3) fibroblasts in 6-well tissue culture treated dishes at a density of ˜10,000 cells/well.
Culture cells until ˜70% confluent in high glucose Dulbecco's Modified Eagles Medium (DMEM).
When cells are ˜70% confluent, replace with fresh medium, dose with actives and continue culturing until cells are 100% confluent.
Remove media and store at 4° C.
Dilute 20 μl conditioned (treated) media in 200 μl unconditioned DMEM.
Soak nitrocellulose membrane and 3 sheets of filter paper in 1×TBS (tris buffered saline, pH=7.3).
Set up Bio-Rad slot blot apparatus with filter paper on bottom, nitrocellulose membrane on top. Add 100 μl TBS/well. Vacuum dry.
Remove membrane from apparatus and place in blocking solution (5% milk powder in phosphate buffered saline (PBS)) for 1 hr at room temperature or overnight at 4° C.
Primary antibody-Remove membrane from blocking solution and incubate for 1.5 hours at room temperature or overnight at 4° C. with 1.5 ml rat anti-human procollagen amino-terminal antibody (Chemicon MAB1912) 1:100 in TBS with 0.1% bovine serum albumin (BSA).
Remove membrane, was 3×(10 minutes/wash) in TBS/0.1% tween 20.
Secondary antibody-incubate for 1 hour at room temperature or overnight at 4° C. in 2 ml 1:1000 biotinylated anti-rat peroxidase conjugated antibody (Vector Labs).
Remove membrane from secondary antibody and was 3×(10 minutes/wash) in TBS/0.1% tween 20.
Preincubate 3 ml PBS with 30 μl each of solutions A and B from Vectastain kit for 30 minutes. […]
Scan using a laser densitometer and quantified as % over control (with control at 100%).

[1] = system: CRABP-2 expression of pig skin epidermis; experiment: CRABP-2 assay; assay type: cell-based; settings: topical dose 5 μl in ethanol vehicle, four days, control as 100%
Excerpt: Within the cells, retinol and retinoic acid are bound to specific cellular binding proteins. Two of the major proteins are CRABP-1 and CRABP-2 (Roos et al., Pharmacological reviews: 50, 315-333, 1998). These proteins regulate the intracellular concentration of retinoids by acting as either storage or shuttle proteins in retinoid metabolism. The levels of CRABP protein are regulated by the amount of retinoic acid within the cells. Higher cellular levels of retinoids increase the expression of CRABP-2. Therefore, the amount of this protein in the cells is a measure of the retinoid activity of the cells. Skin cells contain high levels of CRABP-2 both in the epidermis and the dermis. CRABP-2 response to retinoid administration in is used as a reproducible measure of retinoid bioactivity that predict human skin responses (Elder et al., J. Invest. Dermatol., 106: 517-521, 1996). Increase in CRABP-2 is also associated with increased epidermal differentiation, and dermal retinoid action. Therefore, in these studies we used CRABP-2 expression of pig skin epidermis as a measure of retinoid activity leading to increased epidermal differentiation (skin conditioning and dry skin benefit) and dermal collagen and extracellular matrix synthesis (antiaging, anti wrinkling benefits).
Pig skin was received, scrubbed with Vionex detergent, and dermatomed at a thickness of 0.058 cm and allowed to wash in preliminary medium on a shaker for an hour with three solution changes.
7 mm punches were taken and allowed to sit in final medium overnight. The next day, the medium was refreshed with final medium 1 mL per well. One day later, the plates received fresh final medium,and topically dosed with 5 μl of the active(s) in an ethanol vehicle.
After four days, the biopsies will be removed from the plates, washed with PBS in a concial tube, and frozen at −80° C. for future use.
After thawing, the epidermis was separated and boiled in urea and sample buffer, after which protein quantitation was possible.
16% 15 lane acrylamide gels were loaded ewith the appropriate samples and run until all the proteins were separated based upon their molecular weight.
The gels were transferred onto PVDF membranes at 25 constant Volts for 2.5 hours.
The membranes were blocked with 5% milk in TBST (Tween 0.05%) for one hour at room temperature.
Primary Ab exposure 1:1,000 in 1% milk TBS soln for one hour, followed by six washes with TBST over a period of one hour. […]
The bands in the film were quantified by densitometric scanning, the data from triplicate samples were calculated as % of control and expressed in the following tables as % increase over control (with control as 100%).

SMILES: CCCCC/C=C/C/C=C/C/C=C/CCCCC(=O)OC/C=C(C)/C=C/C=C(C)/C=C/C1=C(C)CCCC1(C)C [Gamma-retinyl linolenate, Retinyl-cis-6,9,12-Octadecatrienoate]
- % over control (Procollagen I; Experiment 1, concentration 10^−5 M, p < 0.05): 225 % over control
- % over control ([1]; concentration 10^−4 M): 882 % over control

SMILES: CCCCCCCCCCCCCCCC(=O)OC/C=C(C)/C=C/C=C(C)/C=C/C1=C(C)CCCC1(C)C [Retinyl Palmitate, reference compound]
- % over control (Procollagen I; Experiment 3, concentration 10^−7 M, not significant): 24 % over control
- % over control ([1]; concentration 10^−3 M): 444 % over control

SMILES: CCCCC/C=C/CCCCCCCCCCC(=O)OC/C=C(C)/C=C/C=C(C)/C=C/C1=C(C)CCCC1(C)C [Retinyl cis-12-Octadecenoate, Retinyl-cis12-Octadecenoate]
- % over control (Procollagen I; Experiment 2, concentration 10^−6 M, p < 0.05): 28 % over control
- % over control ([1]; concentration 10^−4 M): 993 % over control

SMILES: CCCCCCCCCCC/C=C/CCCCC(=O)OC/C=C(C)/C=C/C=C(C)/C=C/C1=C(C)CCCC1(C)C [Retinyl petroselinate, Retinyl Petroselinate]
- % over control (Procollagen I; Experiment 1, concentration 10^−6 M, p < 0.05): 110 % over control
- % over control ([1]; concentration 10^−3 M): 522 % over control
